Measured values reported in patent EP0345153A1, “Affinity markers for hormonal steroid receptors, their use in hormonoradio therapy and as imaging agents of hormone-dependent cancers” (LA REGION WALLONNE, priority 1988, dated 1989).

Legend:
[1] = target: T1, récepteurs nucléaires de l'oestradiol d'utérus de brebis (Ovis aries, UniProt A0ACI6Q0N8); experiment: Irreversible binding to nuclear estradiol receptors in ewe uterus nuclear extract (exchange with 10 nM tritiated estradiol, protamine sulfate precipitation)
T1 sequence (A0ACI6Q0N8 1-596): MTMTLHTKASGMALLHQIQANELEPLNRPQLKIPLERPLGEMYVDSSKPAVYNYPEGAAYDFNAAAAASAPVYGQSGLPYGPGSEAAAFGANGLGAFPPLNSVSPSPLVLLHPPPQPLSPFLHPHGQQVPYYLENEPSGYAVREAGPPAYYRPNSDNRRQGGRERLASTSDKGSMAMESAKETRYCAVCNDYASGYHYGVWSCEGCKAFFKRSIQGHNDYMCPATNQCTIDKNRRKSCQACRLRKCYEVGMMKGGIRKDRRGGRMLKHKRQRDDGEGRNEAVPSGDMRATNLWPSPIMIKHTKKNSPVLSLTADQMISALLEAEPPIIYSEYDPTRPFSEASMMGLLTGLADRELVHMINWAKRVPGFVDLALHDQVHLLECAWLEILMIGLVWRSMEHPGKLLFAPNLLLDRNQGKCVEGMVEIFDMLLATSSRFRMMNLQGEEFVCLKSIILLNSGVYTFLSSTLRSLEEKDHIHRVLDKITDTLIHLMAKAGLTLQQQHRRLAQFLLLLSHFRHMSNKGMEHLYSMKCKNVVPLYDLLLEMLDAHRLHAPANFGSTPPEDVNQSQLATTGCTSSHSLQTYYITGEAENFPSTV
Protocol: La nature irréversible de l'intéraction du composé 12 avec le récepteur a été démontrée en incubant un extrait nucléaire d'utérus de brebis en présence de molarités variables de complexe 12. A la fin du temps . d'incubation, l'hormone libre, présente dans le milieu, est éliminée par traitement au charbon dextran. Les fractions d'extrait nucléaire sont ensuite incubées à 20°C pendant 17 h. en présence de 10 nM d'oestradiol tritié. La fraction d'oestradiol tritiée liée (qui représente la quantité de récepteur qui n'a pas été marquée de façon covalente) est déterminée après précipitation des fractions liées au sulfate de protamine (9b). Les résultats sont rassemblés dans le tableau suivant

[2] = system: récepteur de l'oestradiol; experiment: Relative binding affinity (A.R.L) for the estradiol receptor; conditions: vis-à-vis du récepteur de l'oestradiol
From the text: Dans cette optique, des composés tels que 7 et 8 sont préparés (9b). Ils portent des petits clusters en 17a-et couvrent une gamme de valeurs de PKR+ de -6 pour 7 à +3 pour 8.

[3] = system: récepteur de l'oestradiol; conditions: cited from earlier work
[4] = target: T2, Récepteur de la progestérone (Homo sapiens, UniProt P06401); conditions: photochemically activated, after 1H; cited from earlier work
T2 sequence (P06401 1-933): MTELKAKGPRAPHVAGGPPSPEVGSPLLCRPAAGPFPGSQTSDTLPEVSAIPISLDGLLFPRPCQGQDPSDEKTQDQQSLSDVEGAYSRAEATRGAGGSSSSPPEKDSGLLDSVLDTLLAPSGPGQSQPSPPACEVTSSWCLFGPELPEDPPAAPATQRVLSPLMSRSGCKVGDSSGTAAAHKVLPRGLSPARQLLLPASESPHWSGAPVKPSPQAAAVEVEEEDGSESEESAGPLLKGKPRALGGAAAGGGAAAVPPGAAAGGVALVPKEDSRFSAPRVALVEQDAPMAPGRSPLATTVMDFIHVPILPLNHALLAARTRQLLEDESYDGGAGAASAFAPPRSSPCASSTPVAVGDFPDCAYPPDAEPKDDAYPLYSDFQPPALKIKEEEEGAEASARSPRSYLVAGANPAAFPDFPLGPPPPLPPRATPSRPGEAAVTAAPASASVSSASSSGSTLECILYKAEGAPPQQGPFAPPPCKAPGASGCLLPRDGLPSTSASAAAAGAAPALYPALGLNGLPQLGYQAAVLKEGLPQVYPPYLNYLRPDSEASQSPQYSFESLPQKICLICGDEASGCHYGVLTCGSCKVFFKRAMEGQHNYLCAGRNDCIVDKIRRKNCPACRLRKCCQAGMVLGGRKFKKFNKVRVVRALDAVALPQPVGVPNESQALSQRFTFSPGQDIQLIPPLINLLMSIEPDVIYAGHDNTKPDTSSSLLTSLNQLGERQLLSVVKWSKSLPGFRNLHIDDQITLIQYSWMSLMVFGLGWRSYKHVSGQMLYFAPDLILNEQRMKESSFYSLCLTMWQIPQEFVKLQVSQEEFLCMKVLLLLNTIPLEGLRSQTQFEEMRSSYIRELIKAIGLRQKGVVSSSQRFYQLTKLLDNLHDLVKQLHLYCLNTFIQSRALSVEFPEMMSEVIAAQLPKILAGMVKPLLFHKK

[5] = target: T3, Récepteur des glucocorticoîdes (Homo sapiens, UniProt P04150); conditions: whole cells; cited from earlier work
T3 sequence (P04150 1-777): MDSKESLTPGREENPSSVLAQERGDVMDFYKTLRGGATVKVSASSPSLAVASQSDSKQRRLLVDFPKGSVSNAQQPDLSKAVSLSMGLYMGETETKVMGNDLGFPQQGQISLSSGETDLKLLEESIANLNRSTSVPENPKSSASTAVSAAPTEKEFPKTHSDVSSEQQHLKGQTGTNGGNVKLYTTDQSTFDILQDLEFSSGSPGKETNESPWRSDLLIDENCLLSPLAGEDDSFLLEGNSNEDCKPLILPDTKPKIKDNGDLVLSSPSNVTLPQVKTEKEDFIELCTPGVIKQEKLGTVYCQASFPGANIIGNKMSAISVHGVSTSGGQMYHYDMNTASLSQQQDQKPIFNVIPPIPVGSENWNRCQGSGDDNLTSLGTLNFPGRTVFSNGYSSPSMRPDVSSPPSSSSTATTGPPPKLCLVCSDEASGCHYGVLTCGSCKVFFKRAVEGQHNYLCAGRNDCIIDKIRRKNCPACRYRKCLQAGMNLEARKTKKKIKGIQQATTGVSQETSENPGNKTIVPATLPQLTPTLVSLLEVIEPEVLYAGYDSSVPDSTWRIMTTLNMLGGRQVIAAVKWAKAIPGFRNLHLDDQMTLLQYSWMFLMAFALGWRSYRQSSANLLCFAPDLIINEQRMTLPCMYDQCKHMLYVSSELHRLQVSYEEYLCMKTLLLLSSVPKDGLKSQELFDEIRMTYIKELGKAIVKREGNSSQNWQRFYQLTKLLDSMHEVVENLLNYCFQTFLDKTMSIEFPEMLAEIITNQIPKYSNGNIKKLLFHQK

## CC12CCC3c4ccc(O)cc4CCC3C1CCC2(O)[c-]1cccc1.[Fe+2].c1cc[cH-]c1 (stereo not drawn) [compound 12, 17α-Ferrocényl-17β-oestradiol]
[1]; incubation molarity 2 nM
  % d'inhibition de la liaison de l'oestradiol: 50%
[1]; incubation molarity 5 nM
  % d'inhibition de la liaison de l'oestradiol: 71%
[1]; incubation molarity 10 nM
  % d'inhibition de la liaison de l'oestradiol: 81%
[2]
  affinité relative de liaison (A.R.L): 13%

## C[C@]12CC[C@@H]3c4ccc(O)cc4CC[C@H]3[C@@H]1CC[C@@]2(O)c1ccccc1 [[17α-C6H5]-17β-oestradiol]
[2]
  affinité relative de liaison (A.R.L): 25%

## C[C@]12C[C@H](CCl)[C@@H]3c4ccc(O)cc4CC[C@H]3[C@@H]1CC[C@@H]2O [compound 6, chlorométhyl 11β-oestradiol]
[3]
  marqueur d'affinité du récepteur de l'oestradiol: n'en étant pas un

## CCC(=O)[C@@]1(C)CC[C@H]2[C@@H]3CCC4=CC(=O)CCC4=C3CC[C@@]21C [compound 1, R5020]
[4]
  Marquage: 15%

## azide de l'hexestrol [compound 3]
[3]; photochemical route
  efficacité d'inactivation: 10-15%

## Dexaméthasone-mésylate-21 [compound 2]
[5]
  liaison non-spécifique: Taux élevé de liaison non-spécifique
